# Measured values as given in patent EP1541694A1, “Methods of identifying, selecting and/or characterizing compounds which modulate the activity of a Src family kinase” (Sirenade Pharmaceuticals AG, priority 2003, dated 2005).
# How the values were obtained:
# Format in all cases: cell-based, human
# [1] = system: Src-YF expressing ZM77 cell lines; experiment: Suppression of tet-induced phenotype changes (cell scattering) in suspension, Ultra Low Attachment plates; conditions: Ultralow Attachment Plates
# Experimental: (§1) Cells were seeded into 24-well or 96-well "Ultra Low Attachment" plates (cat.no.: 3473, Costar Corning Corp., Acton, MA, USA). These plates are coated with a covalently bound hydrogel layer that prevents cellular attachment to the polystyrene surface of the wells. As the cells were not attached to these wells, a medium change was impossible here. However, the phenotypes were tested in full serum-containing medium in the absence or presence of EGF, PDGF-BB or HGF as detailed above. Tet-induction was also started the day after seeding.
# (§2) Largely irrespective of the cell numbers per well, the cells of all cell lines were in suspension and formed one or few very condensed/compact, opaque, rod-, disc- or kidney-shaped aggregates with a smooth surface, in which individual cells could not be discerned. Phenotype changes became apparent ~24 h after tet induction in ZM77 and ZM170 cell lines only, and Δpt(-tet →+tet)max was reached after ~2 days. In these cell lines Src-YF or Src-TQ/YF expression, respectively, induces scattering of the cells. Many cells are floating in the medium individually or in small clusters and the remaining large aggregate(s) are irregular-shaped and rather loose than compact; individual cells can easily be discerned and thus, the surfaces of these aggregates are rough as with bunches of grapes (Fig.14a,b). This biological response was readily observed with or without any of the above growth factors, wherefore normal growth medium without any additional growth factor was subsequently used in this assay type.
# (§3) To that end, the test compounds PP1-Chr., SU6656 and PP2 were individually added to the cells together with tet, and the development of the phenotype changes in the presence of these compounds was monitored subsequently in direct comparison with tet-induced cells that received no compound (Fig.14c-j). The compounds were also added to the cells without tet-induction of Src/ Src mutant expression as controls for non-specific/ toxicity effects. The experiments were performed with several ZM77 cell lines.
# [2] = system: Src-TQ/YF expressing cell line ZM170.21; experiment: as above; conditions: ZM170.21 (Src-TQ/YF) in suspension, Ultralow Attachment Plates
# Experimental: as §1, §2, §3
# [3] = system: Src-TQ/YF expressing cell line ZM170.21; experiment: CTB and ATP cell viability/metabolic activity assays, suppression of tet-induced reduction; conditions: ZM170.21 (Src-TQ/YF), 5µM PP2 + 10µM PP1-Chr., 40µM D5, 1µM 17-AAG, 1µM radicicol
# Excerpt: To proof the concept of the assay platform according to the invention in a quantitative manner with a highly parallel readout, the following cell viability / metabolic activity assays from Promega according to the manufacturer's protocols: "CellTiter 96 AQueous One Solution Cell Proliferation Assay (MTS)", CellTiter-BlueTM Cell Viability Assay (CTB), and the ATP-status assay "CellTiter-Glo Luminescent Cell Viability Assay" (ATP) were used to obtain quantitative values reflecting (aspects of) the phenotype changes. The cells were seeded into white-walled/ clear bottom 96-well plates ["MICROTEST" by Falcon, cat.no. 353947] for MTS and ATP assays and in black-walled/ clear bottom 96-well plates ["MICROTEST" by Falcon, cat.no. 353948] for the CTB assay at the appropriate densities. Tet and/or compound addition (where applicable) was started the next day. Measurements were taken 1,2 and 3 days later using the Wallac Victor^2TM multilabel plate reader (Perkin Elmer). Absorbance was measured at 490nm (MTS). Luminescence mode was used for the ATP assay. For CTB fluorescence excitation wavelength was 550nm (filter: 550(20)nm), emission wavelength was 590 nm (filter: 590(20)nm). Indicated are the means of sixplicate determinations (from 6 independent wells) in the absence of tet (mean(-tet)) and in the presence of tet (mean(+tet)), followed by the respective corresponding standard deviations SD(-tet) and SD(+tet). The cell viability/ metabolic activity upon tet-induction in relation to the cell viability/ metabolic activity without tet ("+/tet(means") is calculated from the quotient of the means of the measured cell viability/ metabolic activity signals from i) cells incubated without tet and ii) cells incubated with tet. […] Furthermore indicated are the corresponding Z' values. In the present context: Z'=1-(3(SD(+tet)+SD(-tet))/ |mean(+tet)-mean(-tet)|. […] SD=0) (Zhang et al., 1999). Z'≥0 is required for an assay useful for a screening approach; a Z'≥0.5 is considered excellent for an assay with regard to high throughput screening. […] Three more parameters reflecting the effects of compounds on cell viability/metabolic activity in these assays are indicated in Tab.3 and Tab.4: Toxicity reflects the nonspecific (i.e. irrespective of tet-induced Src/ Src mutant expression) effects of a compound on the viability/ metabolic activity of the cells. It is calculated as toxicity=1-mean(-tet, compound)/mean(-tet,(DMSO)). […] The suppression value quantifies the potency of a compound with respect to suppression of the tet-induced change in cell viability / metabolic activity. Usually, tet-induction reduces cell viability / metabolic activity due to Src activity and addition of a Src inhibitory compound mitigates this reduction. A suppression of 100% means that the compound totally suppresses the tet-induced decrease in cell viability / metabolic activity (as in the absence of tet). The following formula is employed: Suppres-sion=([…]). Finally, the corresponding Z' value is calculated as follows: Z'(suppression)=1- 3([…]). The factor Qtox corrects the means and SD determined in the absence of a compound for the (nonspecific) toxicity effect of the respective compound, which would otherwise overlay and obscure the specific suppression, if toxicity is not neglectable. […] On each day 4 measurements are taken (1, 2, 3 and 4 h after the addition of the CTB assay reagents). […]
smiles,measurement,setting,value
CC(C)(C)n1nc(-c2ccc(Cl)cc2)c2c(N)ncnc21 [PP2],suppression of tet-induced phenotype changes (cell scattering),[1],partially suppressed
same,suppression of tet-induced phenotype (cell scattering),[2],largely ineffective
same,suppression of the +/-tet(means)-values,[3],did not significantly suppress
